Experimental data reported in patent publication US3963707A, “Novel N-nitroso compounds, compositions containing such compounds, processes for their preparation and methods of treatment therewith, and novel intermediates” (Aktiebolaget Leo, priority 1973, dated 1976).
Read-outs that look alike come from different tables or passages of the source.

Legend:
[1] = test system: Lymphatic leukemia L 1210; experiment: Lymphatic leukemia L 1210 test; assay type: in vivo, CDF1 (C3H×DBA/2)F1 mice; settings: for effect on L 1210: result in words, dose not given; for Effect %: survival time as percentage of control; for Weight change v: vs control up to the 5th day
Excerpt: (§1) The experimental design and the interpretation of the results have been in accordance with the standards set by the CCNSC (Cancer Chemotherapy Reports, January 1959 and December 1962), and by the DR&D (Cancer Chemotherapy Reports, September 1972, Vol. 3, No. 2).
(§2) The way of administration is by the intraperitoneal route (i.p.) in each case.
Lymphatic leukemia L 1210
Experimental animals: CDF1 (C3H×DBA/2)F1 mice.
Tumour implant: 10^5 tumour cells i.p.
Therapy: One injection i.p. on the day following implantation.
Evaluation: a) The survival time of the test animals (t) expressed as the percentage of that of control animals (c).
b. Weight change in the test animals (T) compared with that of the control animals (c) up to the 5th day.
c. The mortality rate must not exceed 35% in the test animals on the 5th day of therapy.

[2] = test system: Ehrlich ascites tumour, ELD hyperdiploid (46 chromosomes); experiment: Ehrlich ascites tumour test (LD50, ED50, therapeutic index); assay type: in vivo, SPF NMRI mice; settings: for anti-tumor activity: additional compounds, result in words
Method in brief: (§3)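 SPF NMRI mice implanted i.p. with 2 × 10^6 Ehrlich ascites (ELD hyperdiploid) cells and given a single i.p. dose the next day; killed on day 8. ED50 = dose halving tumour weight versus controls, LD50 = dose lethal to 50%; T.I. = LD50/ED50.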

Hepatoma AH 130 = experiment: in vivo; design: species or system SPF Wistar rats; settings: for anti-tumor activity: additional compounds, result in words; for ED50: Rattus norvegicus, ip, 192 h, one injection i.p. day after implantation, dose causing 50 percent reduction of tumour size; for T.I. (LD50/ED50): Hepatoma AH 130, rats, i.p.
Method in brief: (§4)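 SPF Wistar rats were implanted i.p. with 5 × 10^6 AH 130 cells and given one i.p. dose the next day. On day 8 they were killed and tumour weights were compared with controls. ED50 is the dose halving tumour size, LD50 the 50% lethal dose, and T.I. is LD50/ED50.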

[3] = Thymolytic effect according to A. C. Hilger (assay 8); settings: in vivo
Excerpt: Thymolytic effect according to A. C.

ventral prostate [4] = experiment: Androgenic effect in castrated male rats; assay type: in vivo; settings: subcutanous and intraperitoneal administration, 7 days
Protocol: (§5) The androgenic and estrogenic activities, as described below, are determined with established methods (see e.g. Dorfman, R.: Methods in Hormone Research, vol. II, Acad. Press, New York and London 1962, pp. 93 and 275).
The androgenic effect is assayed in castrated male rats. Beginning two weeks after castration the animals are given one daily injection of the compound for 7 days. The weight of the ventral prostate is determined on the 8th day.

[5] = Ehrlich ascites tumour test (LD50, ED50, therapeutic index); assay type: in vivo, SPF NMRI mice; settings: mouse, in vivo, ip; one injection i.p., mice; dose causing 50 percent lethality
Method in brief: as §3

in vivo = experiment: in vivo; design: species or system SPF Wistar rats; settings: rat, in vivo, ip; one injection i.p., rats; dose causing 50 percent lethality
Method in brief: as §4

[6] = test system: Walker carcinosarcoma 256; experiment: Walker carcinosarcoma 256 test; assay type: in vivo, Sprague Dawley rats; settings: 5×250 mg/kg i.p.; for Lethality: died/used animals
Excerpt: as §1, §2
Walker carcinosarcoma 256
Experimental animals: Sprague Dawley rats.
Tumour implant: Tumour pieces with 2-4 mm diameter, subcutaneously.
Therapy: Daily injections i.p. for 5 days starting on the day following implantation.
Termination: The animals are killed on the 9th day.
Evaluation: Weights of tumours of test animals are compared with those of control animals. The differences, in per cent of weights of tumours of control animals, give per cent tumour inhibition.
The lethality is given as the number of animals which died in the experiment/the number of animals used in the experiments.

[7] = Progestational activity in the Clanberg test; assay type: in vivo; settings: standard scale of McPhail
ventral prostate [8] = settings: as reported in the literature; cited from earlier work
[9] = acute intraperitoneal toxicity in mice; cited from earlier work
utering weight = experiment: Estrogenic effect in immature female mice; assay type: in vivo; settings: for estrogenic activity, 17β-estradiol and its 3-acetate compared with each other: same kind of experiment
Protocol: as §5
The estrogenic effect is assayed in immature female mice. The animals receive the compounds once daily for three consecutive days, and on the 4th day the utering weight is determined.

[10] = test system: lymphoid leukemia (L 1210); settings: result in words; cited from earlier work
Adenocarcinoma 755 = settings: result in words; cited from earlier work
Sarcoma 180 = settings: result in words; cited from earlier work
Walker 256 = settings: result in words; cited from earlier work

C[C@]12C=CC(=O)C=C1CC[C@@H]1[C@@H]2[C@@H](O)C[C@@]2(C)[C@H]1CC[C@]2(O)C(=O)COC(=O)N(CCCl)N=O [prednisolone-21-N-(2-chloroethyl)-N-nitroso carbamate]
effect on L 1210 [1]: show a significant effect
anti-tumor activity [2]: exhibit anti-tumor activity
anti-tumor activity (Hepatoma AH 130): exhibit anti-tumor activity
thymolytic activity compared with prednisolone acetate [3]: about the same activity as prednisolone acetate

C[C@]12CC[C@H](OC(=O)N(CCCl)N=O)CC1=CC[C@@H]1[C@@H]2CC[C@]2(C)C(=O)CC[C@@H]12 [dehydroepiandrosterone-3β-N-(2-chloroethyl)-N-nitroso carbamate]
Mortality ([1]; 1×500 mg/kg i.p.): 0/40
Effect % ([1]; 1×500 mg/kg i.p.): 143%
Weight change v ([1]; 1×500 mg/kg i.p.): -2.5 g
androgenic effect compared with testosterone (ventral prostate [4]): somewhat weaker androgenic effect
T.I. (LD50/ED50) ([2]; Ehrlich ascites, mice, i.p.): > 102
ED50 ([2]; Mus musculus, Ehrlich, ip, one injection i.p. day after implantation, dose causing 50 percent reduction of tumour size, read-out: ED50): 98 mg/kg
LD50 [5]: > 1000 mg/kg
LD50 (in vivo): > 1000 mg/kg
ED50 (Hepatoma AH 130): 0.4 mg/kg
Tumour inhibition % [6]: 66%
Lethality [6]: 0/16

C#C[C@]1(OC(C)=O)CC[C@H]2[C@@H]3CCC4=C[C@@H](OC(=O)N(CCCl)N=O)CC[C@@H]4[C@H]3CC[C@@]21C [ethynodiol-17β-acetate-3β-N-(2-chloroethyl)-N-nitroso carbamate]
anti-tumor activity [2]: exhibit anti-tumor activity
anti-tumor activity (Hepatoma AH 130): exhibit anti-tumor activity
progestational activity compared with ethynodiol-3,17-diacetate [7]: about half that of ethynodiol-3,17 -diacetate

C[C@]12CC[C@H](O)CC1=CC[C@@H]1[C@@H]2CC[C@]2(C)C(=O)CC[C@@H]12 [dehydroepiandrosterone, androst-5-en-3β-ol-17-one]
androgenic effect compared with testosterone (ventral prostate [8]): weaker androgenic effect

CCCCOC(=O)N(CCCl)N=O [CH3 (CH2)2 CH2 --]
LD50 [9]: 11 to 15 mg/kg

O=NN(CCCl)C(=O)Oc1ccc2ccccc2c1 [β-Naphthyl]
LD50 [9]: 42 mg/kg

CC(=O)Oc1ccc2c(c1)CC[C@@H]1[C@@H]2CC[C@]2(C)[C@@H](O)CC[C@@H]12 [17β-estradiol-3-acetate]
estrogenic activity, 17β-estradiol and its 3-acetate compared with each other (utering weight): about the same estrogenic activity

CCOC(=O)N(CCCl)N=O [C2 H5 --]
LD50 [9]: 2 mg/kg
activity against lymphoid leukemia (L 1210) [10]: inactive
activity against Adenocarcinoma 755 (Adenocarcinoma 755): inactive
activity against Sarcoma 180 (Sarcoma 180): inactive

C[C@]12CC[C@H]3[C@@H](CCC4=CC(=O)CC[C@@]43C)[C@@H]1CC[C@@H]2OC(=O)N(CCCl)N=O [testosterone-17β-N-(2-chloroethyl)-N-nitroso carbamate]
Mortality ([1]; 1×125 mg/kg i.p.): 0/40
Effect % ([1]; 1×125 mg/kg i.p.): 125%
Weight change v ([1]; 1×125 mg/kg i.p.): -1.8 g
androgenic effect compared with testosterone (ventral prostate [4]): about the same androgenic effect as testosterone
anti-tumor activity [2]: exhibit anti-tumor activity
LD50 (in vivo): > 1000 mg/kg
T.I. (LD50/ED50) (Hepatoma AH 130): > 100
ED50 (Hepatoma AH 130): 8 mg/kg
Tumour inhibition % [6]: 64%
Lethality [6]: 0/8

C[C@]12CC[C@@H]3c4ccc(O)cc4CC[C@H]3[C@@H]1CC[C@@H]2O [17β-estradiol, estra-1,3,5(10)-triene-3,17β-diol]
estrogenic activity, 17β-estradiol and its 3-acetate compared with each other (utering weight): about the same estrogenic activity

C#C[C@]1(OC(C)=O)CC[C@H]2[C@@H]3CCC4=C[C@@H](OC(=O)N(C(=O)N(CCCl)N=O)C5CCCCC5)CC[C@@H]4[C@H]3CC[C@@]21C [ethynodiol-17β-acetate-3β-/N^2-cyclohexyl-N^4-(2-chloroethyl)-N^4-nitroso allophanate/]
anti-tumor activity [2]: exhibit anti-tumor activity
anti-tumor activity (Hepatoma AH 130): exhibit anti-tumor activity
progestational activity compared with ethynodiol-3,17-diacetate [7]: about half that of ethynodiol-3,17 -diacetate

CC(C)COC(=O)N(CCCl)N=O [(CH3)2 CHCH2 --]
activity against Walker 256 (Walker 256): inactive
LD50 [9]: 7 mg/kg
activity against lymphoid leukemia (L 1210) [10]: inactive

C[C@]12C=CC(=O)C=C1CC[C@@H]1[C@@H]2[C@@H](O)C[C@@]2(C)[C@H]1CC[C@]2(O)C(=O)COC(=O)N(CCCl)C(=O)N(CCCl)N=O [prednisolone-21-/N^2,N^4-bis (2-chloroethyl)-N^4-nitroso allophanate/]
effect on L 1210 [1]: show a significant effect
anti-tumor activity [2]: exhibit anti-tumor activity
anti-tumor activity (Hepatoma AH 130): exhibit anti-tumor activity
thymolytic activity compared with prednisolone acetate [3]: about the same activity as prednisolone acetate

O=NN(CCCl)C(=O)Oc1ccccc1 [Phenyl]
LD50 [9]: 3 to 7 mg/kg

CC(=O)Oc1ccc2c(c1)CC[C@@H]1[C@@H]2CC[C@]2(C)[C@@H](OC(=O)N(CCCl)N=O)CC[C@@H]12 [estradiol-3-acetate-17β-N-(2-chloroethyl)-N-nitroso carbamate]
estrogenic effect compared with 17β-estradiol and 17β-estradiol-3-acetate (utering weight; given orally, subcutanously or intraperitoneally): about 10 times weaker
anti-tumor activity [2]: exhibit anti-tumor activity
LD50 (in vivo): > 1000 mg/kg
T.I. (LD50/ED50) (Hepatoma AH 130): > 10
ED50 (Hepatoma AH 130): 96 mg/kg
Tumour inhibition % [6]: 74%
Lethality [6]: 1/8
